From patent US9938335B2, “Glucagon and GLP-1 co-agonist compounds” (Eli Lilly and Company, priority 2015, dated 2018)
Where “and” joins values, the source holds several entries; their conditions need not be identical. Equal entries are not always repeated. Where two headings read alike, the source gives them in different places. Marks after values point to notes of the source that are not given here.

Columns and labels:
hGcg-R [1] = target: T1, hGcg-R (Homo sapiens, UniProt P47871); assay: hGcg-R Binding Assay (SPA radioligand competition, 293HEK membranes); settings: read-out: Ki, nM ± SEM at the hGcg-R
rat GLP-1-R = target: T2, rat GLP-1-R (Rattus norvegicus, UniProt P32301); assay: Functional activation of the rat GLP-1-R in insulinoma cell line INS1 832-3 (cAMP); assay type: cell-based
T2 construct: stimulating cAMP production at the endogenous GLP-1 receptors; endogenous in cells; host or cells: INS1 832-3 rat insulinoma cells
T2 sequence (P32301 22-463): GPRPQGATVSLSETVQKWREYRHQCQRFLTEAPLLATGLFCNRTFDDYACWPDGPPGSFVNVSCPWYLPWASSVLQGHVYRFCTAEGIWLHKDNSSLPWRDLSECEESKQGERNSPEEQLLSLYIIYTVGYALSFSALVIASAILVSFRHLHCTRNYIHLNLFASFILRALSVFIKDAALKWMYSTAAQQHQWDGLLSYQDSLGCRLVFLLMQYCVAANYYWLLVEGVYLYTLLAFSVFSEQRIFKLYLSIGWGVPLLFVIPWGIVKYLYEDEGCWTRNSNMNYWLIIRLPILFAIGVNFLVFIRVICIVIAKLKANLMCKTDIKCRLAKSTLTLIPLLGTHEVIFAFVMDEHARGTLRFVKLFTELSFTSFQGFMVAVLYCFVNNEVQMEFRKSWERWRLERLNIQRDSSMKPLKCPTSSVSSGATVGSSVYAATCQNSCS
Experimental: Performance of the assay requires detachment of the cells from culture flasks using Enzyme Free Cell Stripper and pelleted by centrifugation at 1000 rpm for 5 minutes at room temperature. […] After 2 hours starvation, cells are treated with compound by adding 10 μl of 5× compound dilutions into the cell plates (n=2) and incubated in a 37° C., 5% CO2 incubator for 30 minutes.
cAMP concentration is measured using a HTRF cAMP assay kit (Cisbio): cAMP-d2 conjugate in cell lysis buffer (20 μl) followed by the antibody anti-cAMP-Eu^3+-Cryptate, also in cell lysis buffer (20 μl), is added to the cells of the plate.
The assay is performed with duplicated plates.

[2] = Pharmacokinetics in cynomolgus monkeys; assay type: in vivo; settings: for Cmax: read-out: C0 or Cmax
Experimental: The compounds are administered by a single intravenous or subcutaneous dose of 50 nmole/kg or 250 nmole/kg.
The plasma concentrations of compounds are determined by a LC/MS method. Briefly, a compound of the present invention is extracted from 100% monkey plasma (25 μl) using acetonitrile. Two distinct layers are formed upon centrifugation with the compound located in the liquid layer. An 80 μl aliquot of the supernatant was transferred to a 96-well plate, diluted with 150 μl of water and 25 μl of formic acid. The diluted sample (10 μl) was injected onto a Supelco Analytical Discovery BIO Wide Pore C5-3, 5 cm×1 mm, 3 um column. The column effluent is directed into a Thermo Q-Exactive mass spectrometer for detection and quantitation.

DIO mice (C57BL/6) [3] = assay: Acute treatment in DIO mice (PCSK9, FGF-21, cholesterol); assay type: in vivo, mouse; settings: 30 nmol/kg sc, 16 hours post dose
Experimental: In order to investigate metabolic pathways involved with the treatment of compounds of the present invention independent of weight loss, compounds are tested in DIO mice (C57BL/6) acutely. The mice used are three to four months old on a high fat diet for at least 4 weeks. Animals are individually housed in a temperature-controlled (24° C.) facility with a 12 hour light/dark cycle (lights on 6:00), and free access to food and water. Vehicle or testing compounds were administered to mice by subcutaneous injection at 16:00 the day before the study day. Animals were sacrificed 16 hours later to collect blood via cardia puncture. Statistics are analyzed using ANOVA with Dunnett's comparison for JMP-6. Significance is denoted at p≤0.05 vs vehicle.
Food intake was decreased to a similar level in all treatment groups, which may indicate that changes in cholesterol, PCSK9 and FGF-21 are food-intake independent.

DIO mice (C57BL/6) [4] = assay: Effects on energy expenditure in DIO mice (indirect calorimetry); assay type: in vivo, mouse; settings: for Cumulative Heat (Kcal/kg lean mass/3 day): test article 15 nmol/kg, semaglutide 60 nmol/kg sc every three days
Experimental: Seven to eight months old male DIO mice (C57BL/6) weighing 45-50 g are used in this study to assess the effect of compounds of the present invention on energy metabolism. Animals are individually housed in a temperature-controlled (24° C.) facility with a 12 hour light/dark cycle (lights on 22:00), and free access to food (TD95217)(Teklad) and water. After 2 weeks acclimation to the facility, mice are randomized to treatment groups (N=6/group) based on body weight so each group has similar starting mean body weight. Animals are placed in a PhenoMaster/LabMaster calorimeter (TSE Systems, Chesterfield, Mo.) for 8 days of acclimation.
Heat and […] (RER) are measured by indirect calorimetry as described using an open-circuit calorimetry system. RER is the ratio of the volume of CO2 produced (VCO2) to the volume of O2 consumed (VO2). Heat is calculated with lean body weight considered. The energy expenditure is kcal/kg/3 day and expressed as mean±SEM of 6 mice per group. Statistical significance is assessed by two-way ANOVA followed by Tukey's multiple comparison test.

hGcg-R [5] = target: T1, hGcg-R; assay: Functional activation of hGcg-R in primary human hepatocytes (cAMP); assay type: cell-based; design: stimulating cAMP production at the endogenous Gcg receptors; endogenous in cells; host or cells: cryopreserved primary human hepatocytes; settings: primary human hepatocytes
Experimental: Primary human hepatocytes are used to determine functional activity of compounds on stimulating cAMP production at the endogenous Gcg receptors. Vials of human primary hepatocytes are frozen in a liquid nitrogen tank. Upon removal, vials are thawed immediately in a water bath having a temperature of 37° C. Cell suspension is then transferred to 50 ml CHRM (Gibco/Life Technologies cat#CM7000 Cryopreserved Hepatocyte Recovery Medium).
The cell suspension is centrifuged at 1,000×g for 10 min. Cell pellets are resuspended in 5 ml of Plating Media after removing the CHRM by aspiration. The Plating Media is prepared by adding entire contents of CM3000 Supplement Packs to 500 ml Williams Media (Gibco/Life Technologies), followed by sterile filtration through a 0.22 μm membrane.
The cell density is counted on hemocytometer, by adding 100 μl of cell suspension to 100 μl Trypan Blue (HyClone Trypan Blue 0.04%, catalog number SV30084.01). The cell suspension is further diluted in the Plating Media to the final cell density of 0.8×10^6 cells per ml. […] 65 ml of the cell suspension is then added to each well of the Collagen coated 96-well plate to final cell density 50,000 cells per well. The cell plate is incubated in a 37° C., 5% CO2 incubator for 3-4 hours.
After 3-4 hours incubation, the media is aspirated and replaced with 100 ml Maintenance Media. The maintenance media is prepared by adding entire contents of CM4000 Supplement Packs to 500 ml Williams Media (Gibco/Life Technologies), followed by sterile filtration through a 0.22 μm membrane. The cell plate is returned to the 37° C., 5% CO2 incubator overnight in preparation for the cAMP assay.
The cell plate is removed from the incubator and the media is removed by gentle aspiration without disturbing the cell monolayer.
cAMP concentration is measured using a HTRF cAMP assay kit (Cisbio): cAMP-d2 conjugate in cell lysis buffer (40 μl) followed by the antibody anti-cAMP-Eu^3+-Cryptate, also in cell lysis buffer (40 μl), is added to the cells of the plate.

[6] = Table 9: single IV 50 nmol/kg, individual animals
[7] = Table 9: single SC 50 nmol/kg, individual animals
[8] = Table 9: single SC 250 nmol/kg, individual animals
[9] = male, cynomolgus monkey, plasma, iv, 50 nmol/kg, Table 9: single IV 50 nmol/kg, mean
[10] = male, cynomolgus monkey, plasma, sc, 50 nmol/kg, Table 9: single SC 50 nmol/kg, individual animals
[11] = male, cynomolgus monkey, plasma, sc, 50 nmol/kg, Table 9: single SC 50 nmol/kg, mean
[12] = male, cynomolgus monkey, plasma, sc, 250 nmol/kg, Table 9: single SC 250 nmol/kg, individual animals
[13] = male, cynomolgus monkey, plasma, sc, 250 nmol/kg, Table 9: single SC 250 nmol/kg, mean

T1 sequence (P47871 26-477): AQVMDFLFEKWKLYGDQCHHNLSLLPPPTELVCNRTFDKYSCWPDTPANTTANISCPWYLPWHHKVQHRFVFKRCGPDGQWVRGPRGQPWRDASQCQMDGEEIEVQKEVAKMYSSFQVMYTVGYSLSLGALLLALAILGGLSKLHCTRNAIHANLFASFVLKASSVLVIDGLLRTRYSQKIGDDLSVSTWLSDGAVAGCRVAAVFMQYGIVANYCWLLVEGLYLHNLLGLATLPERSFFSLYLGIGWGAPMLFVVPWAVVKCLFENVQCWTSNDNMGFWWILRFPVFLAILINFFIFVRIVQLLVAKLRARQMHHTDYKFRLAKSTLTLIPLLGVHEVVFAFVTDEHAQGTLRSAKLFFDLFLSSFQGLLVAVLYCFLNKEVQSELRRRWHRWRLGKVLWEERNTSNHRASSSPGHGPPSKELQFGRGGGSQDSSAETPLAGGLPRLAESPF

Ki (hGcg-R [1]): 17.7 ± 5 nM
EC50 (rat GLP-1-R; INS1 832-3 cells, cAMP, 30 minutes): 62 nM
Emax (rat GLP-1-R; INS1, percent of maximal response with native GLP-1 peptide at 300 nM): 104%
AUC(0-inf) [2, 6]: 93.174 µM·h
CL/F [2, 6]: 12.7 mL/day/kg and 13 mL/day/kg
Cmax [2, 6]: 1100 nM
T1/2 ([2]; Table 9: single IV 50 nmol/kg, male cynomolgus monkeys, individual animals): 131 h
CL/F ([2]; Table 9: single IV 50 nmol/kg, mean): 12.7 mL/day/kg
AUC(0-inf) [2, 7]: 82.792 µM·h
CL/F [2, 7]: 14.4 mL/day/kg
T1/2 [2, 7]: 106 h
Cmax [2, 7]: 452 nM
AUC(0-inf) [2, 8]: 540.175 µM·h
CL/F [2, 8]: 11 mL/day/kg
T1/2 [2, 8]: 104 h
Cmax [2, 8]: 3620 nM
AUC(0-inf) ([2]; cynomolgus monkey, plasma, sc, 250 nmol/kg, Table 9: single SC 250 nmol/kg, mean, read-out: AUC0-inf): 485 µM·h
CL/F ([2]; cynomolgus monkey, plasma, sc, 250 nmol/kg, Table 9: single SC 250 nmol/kg, mean, read-out: CL/F (converted)): 12.5 mL/day/kg
AUC(0-inf) ([2]; male, cynomolgus monkey, plasma, iv, 50 nmol/kg, Table 9: single IV 50 nmol/kg, individual animals, read-out: AUC0-inf): 94.8 µM·h
Cmax ([2]; male, cynomolgus monkey, plasma, iv, 50 nmol/kg, Table 9: single IV 50 nmol/kg, individual animals): 1020 nM
half-life ([2]; male, cynomolgus monkey, plasma, iv, 50 nmol/kg, Table 9: single IV 50 nmol/kg, male cynomolgus monkeys, individual animals): 88 h
half-life [2, 9]: 110 h
AUC(0-inf) ([2]; male, cynomolgus monkey, plasma, iv, 50 nmol/kg, Table 9: single IV 50 nmol/kg, mean, read-out: AUC0-inf): 94 µM·h
Cmax [2, 9]: 1060 nM
Tmax [2, 10]: 24 h
half-life [2, 10]: 137 h
AUC(0-inf) ([2]; male, cynomolgus monkey, plasma, sc, 50 nmol/kg, Table 9: single SC 50 nmol/kg, individual animals, read-out: AUC0-inf): 101 µM·h
Cmax [2, 10]: 474 nM
CL/F ([2]; male, cynomolgus monkey, plasma, sc, 50 nmol/kg, Table 9: single SC 50 nmol/kg, individual animals, read-out: CL/F (converted)): 12 mL/day/kg
Tmax [2, 11]: ~24 h
half-life [2, 11]: 122 h
AUC(0-inf) ([2]; male, cynomolgus monkey, plasma, sc, 50 nmol/kg, Table 9: single SC 50 nmol/kg, mean, read-out: AUC0-inf): 91.9 µM·h
Cmax [2, 11]: 463 nM
CL/F ([2]; male, cynomolgus monkey, plasma, sc, 50 nmol/kg, Table 9: single SC 50 nmol/kg, mean, read-out: CL/F (converted)): 13.2 mL/day/kg
Tmax [2, 12]: 12 h
half-life [2, 12]: 115 h
AUC(0-inf) ([2]; male, cynomolgus monkey, plasma, sc, 250 nmol/kg, Table 9: single SC 250 nmol/kg, individual animals, read-out: AUC0-inf): 430 µM·h
Cmax [2, 12]: 3640 nM
CL/F ([2]; male, cynomolgus monkey, plasma, sc, 250 nmol/kg, Table 9: single SC 250 nmol/kg, individual animals, read-out: CL/F (converted)): 13.9 mL/day/kg
Tmax [2, 13]: 12 h
half-life [2, 13]: 110 h
Cmax [2, 13]: 3630 nM
EC50 (hGcg-R [5]; cAMP, 1 hour): 159 nM
SMILES: CC(C)C[C@H](NC(=O)[C@H](CC(C)C)NC(=O)[C@H](Cc1c[nH]c2ccccc12)NC(=O)[C@H](CCC(=O)O)NC(=O)[C@@H](NC(=O)[C@H](Cc1ccccc1)NC(=O)[C@H](CCC(=O)O)NC(=O)[C@H](CCCCNC(=O)COCCOCCNC(=O)COCCOCCNC(=O)CC[C@H](NC(=O)CCCCCCCCCCCCCCCCCCC(=O)O)C(=O)O)NC(=O)[C@H](C)NC(=O)[C@H](CCCCN)NC(=O)[C@H](CCCCN)NC(=O)[C@H](CCC(=O)O)NC(=O)[C@H](CC(=O)O)NC(=O)[C@H](CC(C)C)NC(=O)[C@H](Cc1ccc(O)cc1)NC(=O)[C@H](CCCCN)NC(=O)[C@H](CO)NC(=O)[C@H](Cc1ccc(O)cc1)NC(=O)[C@H](CC(=O)O)NC(=O)[C@H](CO)NC(=O)[C@@H](NC(=O)[C@H](Cc1ccccc1)NC(=O)[C@@H](NC(=O)CNC(=O)[C@H](CCC(N)=O)NC(=O)C(C)(C)NC(=O)[C@@H](N)Cc1c[nH]cn1)[C@@H](C)O)[C@@H](C)O)C(C)C)C(=O)N[C@@H](CCC(=O)O)C(=O)NCC(=O)NCC(=O)N1CCC[C@H]1C(=O)N[C@@H](CO)C(=O)N[C@@H](CO)C(=O)NCC(N)=O [Compound 2]
cAMP production (rat GLP-1-R; INS1 832-3 cells, data not shown): increased cAMP production in a dose-dependent manner
Cholesterol (% of vehicle) (DIO mice (C57BL/6) [3]): 80.6* % of vehicle
FGF-21 (% of vehicle) (DIO mice (C57BL/6) [3]): 465* % of vehicle
PCSK9 (% of vehicle) (DIO mice (C57BL/6) [3]): 12.8* % of vehicle
metabolic rate (DIO mice (C57BL/6) [4]; DIO mice, chronic treatment): increased their metabolic rate starting from Week 2
Cumulative Heat (Kcal/kg lean mass/3 day) (DIO mice (C57BL/6) [4]; Day 1 to Day 4): 1746 ± 96 Kcal/kg lean mass/3 day
Cumulative Heat (Kcal/kg lean mass/3 day) (DIO mice (C57BL/6) [4]; Day 4 to Day 7): 1778 ± 132 Kcal/kg lean mass/3 day
Cumulative Heat (Kcal/kg lean mass/3 day) (DIO mice (C57BL/6) [4]; Day 7 to Day 10): 2549 ± 129 Kcal/kg lean mass/3 day
Cumulative Heat (Kcal/kg lean mass/3 day) (DIO mice (C57BL/6) [4]; Day 10 to Day 13): 2568 ± 147 Kcal/kg lean mass/3 day
cAMP production (hGcg-R [5]; data not shown): increased cAMP production in a dose-dependent manner
